According to ChEMBL document CHEMBL3046458, “Pyraclostrobin sensitivity of baseline and fungicide exposed isolates of Pyrenophora tritici-repentis” (Crop Prot, 2012):
In brackets after ≈: the same amount, converted by molar mass.

Tests used:
Assay type in all cases: functional, organism-based
[1] = system: Pyrenophora tritici-repentis; assay: Antifungal activity against Pyrenophora tritici-repentis isolate Ptr 92 115-2-3 assessed as inhibition of conidia germination after 6 hr incubation; settings: Ptr 92 115-2-3, 6 h
[2] = system: Pyrenophora tritici-repentis; assay: Antifungal activity against Pyrenophora tritici-repentis isolate Ptr 4b assessed as inhibition of conidia germination after 6 hr incubation
[3] = system: Pyrenophora tritici-repentis; assay: Antifungal activity against Pyrenophora tritici-repentis isolate Ptr 90 P7d assessed as inhibition of conidia germination after 6 hr incubation
[4] = system: Pyrenophora tritici-repentis; assay: Antifungal activity against Pyrenophora tritici-repentis isolate Ptr 92 120-2-2 assessed as inhibition of conidia germination after 6 hr incubation; settings: Ptr 92 120-2-2, 6 h
[5] = system: Pyrenophora tritici-repentis; assay: Antifungal activity against Pyrenophora tritici-repentis isolate Ptr 90 DL-22 assessed as inhibition of conidia germination after 6 hr incubation; settings: Ptr 90 DL-22, 6 h
[6] = system: Pyrenophora tritici-repentis; assay: Antifungal activity against Pyrenophora tritici-repentis isolate Ptr 1A assessed as inhibition of conidia germination after 6 hr incubation
[7] = system: Pyrenophora tritici-repentis; assay: Antifungal activity against Pyrenophora tritici-repentis isolate Ptr 92 119-2-3 assessed as inhibition of conidia germination after 6 hr incubation; settings: Ptr 92 119-2-3, 6 h
[8] = system: Pyrenophora tritici-repentis; assay: Antifungal activity against Pyrenophora tritici-repentis isolate Ptr 92 148-1-1 assessed as inhibition of conidia germination after 6 hr incubation; settings: Ptr 92 148-1-1, 6 h
[9] = system: Pyrenophora tritici-repentis; assay: Antifungal activity against Pyrenophora tritici-repentis isolate Ptr 86-4 assessed as inhibition of conidia germination after 6 hr incubation; settings: Ptr 86-4, 6 h
[10] = system: Pyrenophora tritici-repentis; assay: Antifungal activity against Pyrenophora tritici-repentis isolate Ptr 92 145-2-4 assessed as inhibition of conidia germination after 6 hr incubation; settings: Ptr 92 145-2-4, 6 h
[11] = system: Pyrenophora tritici-repentis; assay: Antifungal activity against Pyrenophora tritici-repentis isolate Ptr 92 115-2-3 assessed as inhibition of conidia germination after 6 hr incubation in presence of SHAM; settings: Ptr 92 115-2-3, 6 h
[12] = system: Pyrenophora tritici-repentis; assay: Antifungal activity against Pyrenophora tritici-repentis isolate Ptr 4b assessed as inhibition of conidia germination after 6 hr incubation in presence of SHAM
[13] = system: Pyrenophora tritici-repentis; assay: Antifungal activity against Pyrenophora tritici-repentis isolate Ptr 90 P7d assessed as inhibition of conidia germination after 6 hr incubation in presence of SHAM
[14] = system: Pyrenophora tritici-repentis; assay: Antifungal activity against Pyrenophora tritici-repentis isolate Ptr 92 120-2-2 assessed as inhibition of conidia germination after 6 hr incubation in presence of SHAM; settings: Ptr 92 120-2-2, 6 h
[15] = system: Pyrenophora tritici-repentis; assay: Antifungal activity against Pyrenophora tritici-repentis isolate Ptr 92 119-2-3 assessed as inhibition of conidia germination after 6 hr incubation in presence of SHAM; settings: Ptr 92 119-2-3, 6 h
[16] = system: Pyrenophora tritici-repentis; assay: Antifungal activity against Pyrenophora tritici-repentis isolate Ptr 92 148-1-1 assessed as inhibition of conidia germination after 6 hr incubation in presence of SHAM; settings: Ptr 92 148-1-1, 6 h
[17] = system: Pyrenophora tritici-repentis; assay: Antifungal activity against Pyrenophora tritici-repentis isolate Ptr 86-4 assessed as inhibition of conidia germination after 6 hr incubation in presence of SHAM; settings: Ptr 86-4, 6 h
[18] = system: Pyrenophora tritici-repentis; assay: Antifungal activity against Pyrenophora tritici-repentis isolate Ptr 90 DL-22 assessed as inhibition of conidia germination after 6 hr incubation in presence of SHAM; settings: Ptr 90 DL-22, 6 h
[19] = system: Pyrenophora tritici-repentis; assay: Antifungal activity against Pyrenophora tritici-repentis isolate Ptr 1A assessed as inhibition of conidia germination after 6 hr incubation in presence of SHAM
[20] = system: Pyrenophora tritici-repentis; assay: Antifungal activity against Pyrenophora tritici-repentis isolate Ptr 92 145-2-4 assessed as inhibition of conidia germination after 6 hr incubation in presence of SHAM; settings: Ptr 92 145-2-4, 6 h

COC(=O)N(OC)c1ccccc1COc1ccn(-c2ccc(Cl)cc2)n1 [PYRACLOSTROBIN]
EC50 [1]: 0.0124 µg/mL (≈ 0.032 µM)
EC50 [2]: 3.8 ng/mL (≈ 0.0098 µM)
EC50 [3]: 3.3 ng/mL (≈ 0.00851 µM)
EC50 [4]: 8.1 ng/mL (≈ 0.0209 µM)
EC50 [5]: 0.0118 µg/mL (≈ 0.0304 µM)
EC50 [6]: 9.9 ng/mL (≈ 0.0255 µM)
EC50 [7]: 3.8 ng/mL (≈ 0.0098 µM)
EC50 [8]: 5.1 ng/mL (≈ 0.0132 µM)
EC50 [9]: 3.4 ng/mL (≈ 0.00877 µM)
EC50 [10]: 3.8 ng/mL (≈ 0.0098 µM)
EC50 [11]: 2.3 ng/mL
EC50 [12]: 1.6 ng/mL
EC50 [13]: 1.6 ng/mL
EC50 [14]: 2.1 ng/mL
EC50 [15]: 2 ng/mL
EC50 [16]: 2.3 ng/mL
EC50 [17]: 1.6 ng/mL
EC50 [18]: 1.6 ng/mL
EC50 [19]: 2.2 ng/mL
EC50 [20]: 1.5 ng/mL
